Source: US10093630B2, “Pyrazole compounds and methods of making and using same” (ABIDE THERAPEUTICS, INC., priority 2014, dated 2018)
Where two headings read alike, the source gives them in different places.

Tests used:
Assay in all cases: In vitro competitive activity-based protein profiling (gel-based, FP-Rh or HT-01 probe)
Assay type in all cases: biochemical
PLA2G7 = target: T1, PLA2G7 (Mus musculus, UniProt Q60963); settings: for inhibition at 1 µM: 1 μM inhibitor, read-out: % Inhibition at 1 μM, D = PLA2G7; for inhibition at 10 µM: 10 μM inhibitor, read-out: % Inhibition at 10 μM, D = PLA2G7; for IC50: mouse brain membrane fraction or cell lysates, 30 min preincubation at 37° C.
T1 construct: Proteomes (mouse brain membrane fraction or cell lysates); from tissue; host or cells: mouse brain membrane fraction (or cell lysates, not specified)
T1 sequence (Q60963 22-440): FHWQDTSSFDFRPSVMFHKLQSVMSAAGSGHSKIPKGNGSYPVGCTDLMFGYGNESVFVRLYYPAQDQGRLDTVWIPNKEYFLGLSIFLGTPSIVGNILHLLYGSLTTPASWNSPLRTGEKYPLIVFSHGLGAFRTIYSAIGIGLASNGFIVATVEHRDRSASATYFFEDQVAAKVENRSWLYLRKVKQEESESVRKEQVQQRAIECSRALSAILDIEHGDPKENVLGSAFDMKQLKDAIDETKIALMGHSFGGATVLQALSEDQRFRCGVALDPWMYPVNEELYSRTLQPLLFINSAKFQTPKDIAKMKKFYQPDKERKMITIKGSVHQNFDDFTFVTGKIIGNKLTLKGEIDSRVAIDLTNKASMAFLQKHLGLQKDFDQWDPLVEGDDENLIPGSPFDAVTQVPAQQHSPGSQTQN
Outline: (§1)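 Steps: inhibitor dilutions + proteome (1.0 mg/mL), 30 min, 37° C; add FP-Rh or HT-01 (50 μM DMSO stock), 30 min, 37° C; quench in SDS buffer; SDS-PAGE; gel imaging; band densitometry.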

MAGL = target: T2, MAGL (Mus musculus, UniProt O35678); settings: for inhibition at 1 µM: 1 μM inhibitor; for inhibition at 10 µM: 10 μM inhibitor; for IC50: mouse brain membrane fraction or cell lysates, 30 min preincubation at 37° C., read-out: Mouse (IC50 value, nM) MAGL
T2 construct: Proteomes (mouse brain membrane fraction or cell lysates); from tissue; host or cells: mouse brain membrane fraction (or cell lysates, not specified)
T2 sequence (O35678 1-303): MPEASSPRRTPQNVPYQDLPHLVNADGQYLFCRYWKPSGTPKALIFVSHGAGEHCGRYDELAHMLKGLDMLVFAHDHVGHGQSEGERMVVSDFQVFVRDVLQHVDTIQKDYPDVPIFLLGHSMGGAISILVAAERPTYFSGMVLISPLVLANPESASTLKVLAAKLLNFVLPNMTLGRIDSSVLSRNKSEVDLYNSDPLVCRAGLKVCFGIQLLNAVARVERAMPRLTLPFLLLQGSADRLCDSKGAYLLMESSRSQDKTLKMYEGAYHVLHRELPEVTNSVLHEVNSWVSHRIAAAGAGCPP
Outline: as §1

ABHD6 = target: T3, ABHD6 (Mus musculus, UniProt Q8R2Y0); settings: for inhibition at 1 µM: 1 μM inhibitor, read-out: % Inhibition at 1 μM, C = ABHD6; for inhibition at 10 µM: 10 μM inhibitor, read-out: % Inhibition at 10 μM, C = ABHD6; for IC50: mouse brain membrane fraction or cell lysates, 30 min preincubation at 37° C., read-out: Mouse (IC50 value, nM) ABHD6
T3 construct: Proteomes (mouse brain membrane fraction or cell lysates); from tissue; host or cells: mouse brain membrane fraction (or cell lysates, not specified)
T3 sequence (Q8R2Y0 1-336): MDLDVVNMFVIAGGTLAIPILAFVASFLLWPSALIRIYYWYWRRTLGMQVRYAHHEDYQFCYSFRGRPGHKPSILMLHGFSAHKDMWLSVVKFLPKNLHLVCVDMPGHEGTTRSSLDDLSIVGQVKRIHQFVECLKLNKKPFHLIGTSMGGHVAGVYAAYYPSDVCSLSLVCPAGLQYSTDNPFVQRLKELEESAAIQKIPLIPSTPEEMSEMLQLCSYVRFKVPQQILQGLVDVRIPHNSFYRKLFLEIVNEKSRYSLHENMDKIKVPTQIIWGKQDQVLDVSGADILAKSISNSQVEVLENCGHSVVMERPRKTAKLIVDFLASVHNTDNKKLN
Outline: as §1

FAAH = target: T4, FAAH (Mus musculus, UniProt O08914); settings: for inhibition at 1 µM: 1 μM inhibitor, read-out: % Inhibition at 1 μM, B = FAAH; for inhibition at 10 µM: 10 μM inhibitor, read-out: % Inhibition at 10 μM, B = FAAH; for IC50: mouse brain membrane fraction or cell lysates, 30 min preincubation at 37° C., read-out: Mouse (IC50 value, nM) FAAH
T4 construct: Proteomes (mouse brain membrane fraction or cell lysates); from tissue; host or cells: mouse brain membrane fraction (or cell lysates, not specified)
T4 sequence (O08914 1-579): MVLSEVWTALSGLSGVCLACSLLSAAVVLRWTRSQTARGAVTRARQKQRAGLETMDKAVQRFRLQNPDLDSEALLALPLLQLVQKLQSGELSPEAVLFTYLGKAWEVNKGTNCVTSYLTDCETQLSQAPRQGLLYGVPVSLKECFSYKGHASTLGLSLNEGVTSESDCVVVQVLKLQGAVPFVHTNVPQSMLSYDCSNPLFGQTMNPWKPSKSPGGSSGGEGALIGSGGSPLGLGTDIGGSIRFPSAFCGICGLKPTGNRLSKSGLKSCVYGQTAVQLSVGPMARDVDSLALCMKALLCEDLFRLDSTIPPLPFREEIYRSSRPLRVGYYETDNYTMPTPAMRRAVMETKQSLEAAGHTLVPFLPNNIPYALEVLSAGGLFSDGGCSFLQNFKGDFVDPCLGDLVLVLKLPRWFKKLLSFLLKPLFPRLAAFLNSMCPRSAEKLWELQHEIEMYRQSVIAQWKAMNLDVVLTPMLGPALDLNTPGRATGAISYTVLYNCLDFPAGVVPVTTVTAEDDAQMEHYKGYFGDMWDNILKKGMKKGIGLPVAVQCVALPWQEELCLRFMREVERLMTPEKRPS
Outline: as §1

Row | inhibition at 1 µM (PLA2G7) | inhibition at 10 µM (PLA2G7) | IC50 (PLA2G7) | inhibition at 1 µM (MAGL) | inhibition at 10 µM (MAGL) | IC50 (MAGL) | inhibition at 1 µM (ABHD6) | inhibition at 10 µM (ABHD6) | IC50 (ABHD6) | inhibition at 1 µM (FAAH) | inhibition at 10 µM (FAAH) | IC50 (FAAH) | inhibition at 1 µM (PLA2G7; gel-based competitive ABPP) | inhibition at 1 µM (MAGL; gel-based competitive ABPP) | inhibition at 1 µM (ABHD6; gel-based competitive ABPP) | inhibition at 1 µM (FAAH; gel-based competitive ABPP) | inhibition at 10 µM (PLA2G7; gel-based competitive ABPP) | inhibition at 10 µM (MAGL; gel-based competitive ABPP) | inhibition at 10 µM (ABHD6; gel-based competitive ABPP) | inhibition at 10 µM (FAAH; gel-based competitive ABPP) | Compound
1 | < 25% | > 75% | > 1000 nM | > 75% | > 75% | < 100 nM | > 75% | > 75% | 100 to 1000 nM | > 75% | > 75% | < 100 nM | – | – | – | – | – | – | – | – | O=C(N1CCN(Cc2ccc(-c3ccccc3)cc2Cl)CC1)n1cc(Cl)cn1 [Example 139, (4-chloro-1H-pyrazol-1-yl)(4-((3-chlorobiphenyl-4-yl)methyl)piperazin-1-yl)methanone]
2 | > 75% | > 75% | – | > 75% | > 75% | – | > 75% | > 75% | – | > 75% | > 75% | – | – | – | – | – | – | – | – | – | Cc1cc(N2CCN(C(=O)n3cc(C#N)cn3)CC2)c2ccccc2n1 [Example 209, 1-(4-(2-Methylquinolin-4-yl)piperazine-1-carbonyl)-1H-pyrazole-4-carbonitrile]
3 | < 25% | > 75% | – | 25 to 75% | > 75% | – | > 75% | > 75% | – | < 25% | 25 to 75% | – | – | – | – | – | – | – | – | – | Cc1cnn(C(=O)N2CCN(Cc3ccccc3)CC2)c1 [Example 8, (4-Benzylpiperazin-1-yl)(4-methyl-1H-pyrazol-1-yl)methanone]
4 | < 25% | > 75% | – | < 25% | 25 to 75% | – | > 75% | > 75% | – | < 25% | > 75% | – | – | – | – | – | – | – | – | – | CN1CCN(C(=O)n2cc(Cl)cn2)CC1 [Example 185, (4-Chloro-1H-pyrazol-1-yl)(4-methylpiperazin-1-yl)methanone]
5 | – | – | – | – | – | – | – | – | – | – | – | – | < 25% | < 25% | < 25% | < 25% | – | – | – | – | CCN(Cc1cccc(C)c1)C(=O)n1cc(C)cn1 [Example 248, N-ethyl-4-methyl-N-(3-methylbenzyl)-1H-pyrazole-1-carboxamide]
6 | < 25% | 25 to 75% | – | – | < 25% | – | 25 to 75% | > 75% | – | – | < 25% | – | – | – | – | – | – | – | – | – | O=C(N1CCCC1)n1cc(-c2ccc(-c3ccccc3)cc2)cn1 [Example 106, (4-([1,1′-Biphenyl]-4-yl)-1H-pyrazol-1-yl)(pyrrolidin-1-yl)methanone]
7 | > 75% | > 75% | – | > 75% | > 75% | – | > 75% | > 75% | – | > 75% | > 75% | – | – | – | – | – | – | – | – | – | O=C(N1CCN(c2ccccc2)CC1)n1cc(C(F)(F)F)cn1 [Example 202, (4-Phenylpiperazin-1-yl)(4-(trifluoromethyl)-1H-pyrazol-1-yl)methanone]
8 | < 25% | > 75% | – | – | < 25% | – | < 25% | > 75% | – | – | 25 to 75% | – | – | – | – | – | – | – | – | – | O=C(c1cnn(C(=O)N2CCN(Cc3ccncn3)CC2)c1)N1CCC1 [Example 90, Azetidin-1-yl(1-(4-(pyrimidin-4-ylmethyl)piperazine-1-carbonyl)-1H-pyrazol-4-yl)methanone]
9 | < 25% | < 25% | – | > 75% | > 75% | < 100 nM | > 75% | > 75% | – | > 75% | > 75% | – | – | – | – | – | – | – | – | – | O=C(N1CCN(Cc2ccc3ccccc3c2)CC1)n1cccn1 [Example 10, (4-(naphthalen-2-ylmethyl)piperazin-1-yl)(1H-pyrazol-1-yl)methanone]
10 | > 75% | > 75% | – | > 75% | > 75% | – | > 75% | > 75% | – | > 75% | > 75% | – | – | – | – | – | – | – | – | – | O=C(N1CCN(c2ccc(Cl)cc2)CC1)n1cc(C(F)(F)F)cn1 [Example 229, (4-(4-Chlorophenyl)piperazin-1-yl)(4-(trifluoromethyl)-1H-pyrazol-1-yl)methanone]
11 | < 25% | > 75% | – | – | < 25% | – | < 25% | > 75% | – | – | < 25% | – | – | – | – | – | – | – | – | – | O=C(c1cnn(C(=O)N2CCN(Cc3ccccn3)CC2)c1)N1CCOCC1 [Example 77, (4-(Morpholine-4-carbonyl)-1H-pyrazol-1-yl)(4-(pyridin-2-ylmethyl)piperazin-1-yl)methanone]
12 | – | – | – | – | – | – | – | – | – | – | – | – | > 75% | > 75% | > 75% | > 75% | > 75% | > 75% | > 75% | > 75% | N#Cc1cnn(C(=O)N2CCN(Cc3ccc(C(=O)N4CCC4)cc3Cl)CC2)c1 [Example 283, 1-(4-(4-(Azetidine-1-carbonyl)-2-chlorobenzyl)piperazine-1-carbonyl)-1H-pyrazole-4-carbonitrile]
13 | – | – | – | – | – | – | – | – | – | – | – | – | < 25% | > 75% | > 75% | > 75% | – | – | – | – | Cc1cnn(C(=O)N2CCN(Cc3cccc(OCc4ccccc4)c3)CC2)c1 [Example 297, (4-(3-(Benzyloxy)benzyl)piperazin-1-yl)(4-methyl-1H-pyrazol-1-yl)methanone]
14 | 25 to 75% | > 75% | > 1000 nM | > 75% | > 75% | < 100 nM | > 75% | > 75% | 100 to 1000 nM | > 75% | > 75% | < 100 nM | – | – | – | – | – | – | – | – | CN(Cc1cccc(-c2ccncc2)c1)C(=O)n1cc(Cl)cn1 [Example 220, 4-Chloro-N-methyl-N-(3-(pyridin-4-yl)benzyl)-1H-pyrazole-1-carboxamide]
